Assay results reported in US20170119899A1, “COMPOSITIONS AND METHODS FOR TREATMENT OF PEROXISOMAL DISORDERS AND LEUKODYSTROPHIES” (The Johns Hopkins University, priority 2015, published 2017).

Experiments:
Solubility and stability = format: physicochemical
[1] = system: cells from X-ALD patients and X-ALD knockout mice; details: cited from earlier work
[2] = system: primary fibroblasts from male patients with cerebral ALD or AMN; experiment: LysoPC C26/C22 ratio in ALD/AMN patient-derived fibroblasts; format: cell-based, human; details: 100 μM free 4PBA
Experimental: Primary fibroblasts from male patients with either cerebral adrenoleukodystrophy (ALD) or adrenomyeloneuropathy (AMN) phenotype were thawed and plated in wells to grow for 4 days. On the 4th day cells were treated with various doses of Dendrimer-4phenylbutyrate (D4PBA) or free 4PBA and maintained in the culture, the treatment was refreshed on Day 7. Cells were harvested for analysis on Day 11. The C26:0, C22:0, and C20:0 very long chain fatty acid fraction of lysophosphatidyl choline (LysoPC) was measured in the harvested cells and the Lyso PC C26/C22 fraction was then calculated as a measure of impaired peroxisomal beta-oxidation.

TNF-alpha = experiment: VLCFA-induced TNF-alpha in patient-derived macrophages treated with D4PBA; format: cell-based, human; details: 300 micromolar; controls, cerebral ALD and AMN patients
Experimental: In a further experiment, peripheral blood mononucleocytes were derived from a cerebral ALD patient, two AMN and one control subject differentiated in culture using same protocol as above for D-NAC therapy. On day 3, cells were treated with various doses of D4-PBA, and then again on day 5, and day 7. On day 7, macrophages were again stimulated with very long chain fatty acids (VLCFA) as in the D-NAC macrophage study mentioned above. Cells were then harvested at 6 h after stimulation.

[3] = three boys, 140 mg/kg/day i.v. then 70 mg/kg four times daily orally; cited from earlier work
X-ALD mice = details: mouse, in vivo; cited from earlier work
[4] = mouse, in vivo; cited from earlier work
[5] = in vivo; cited from earlier work
[6] = in vivo; cited from earlier work; remark: listed apart in the source

## CC(C)(Oc1ccc(CCNC(=O)c2ccc(Cl)cc2)cc1)C(=O)O [Bezafibrate]
Solubility and stability
  Water solubility: water insoluble

## O=C(O)CCCc1ccccc1 [Free 4PBA, 4-phenyl butyric acid]
[1]
  Very-long-chain fatty acid levels and beta-oxidation: decreased levels of and increased beta-oxidation of very-long-chain fatty acids
Solubility and stability
  Water solubility: water insoluble
[2]
  LysoPC C26/C22 ratio, free drug: no effect
TNF-alpha
  VLCFA-induced TNF-alpha response, free drug: reduced the VLCFA-induced TNF-alpha response

## CC(=O)N[C@@H](CS)C(=O)O [NAC, N-acetyl-L-cysteine]
[3]
  MRI progression in advanced ccALD: slowing of MRI progression and reversal of gadolinium-contrast enhancement on MRI

## Oc1ccc(C=Cc2cc(O)cc(O)c2)cc1 [Resveratrol]
X-ALD mice
  Redox homeostasis, mitochondrial respiration, axonal degeneration, locomotor disabilities: normalize redox homeostasis, mitochondrial respiration, bioenergetic failure, axonal degeneration and associated locomotor disabilities in the X-ALD mice

## C[C@@H]1C[C@H]2[C@@H]3CCC4=CC(=O)C=C[C@]4(C)C3=CC[C@]2(C)[C@@]1(O)C(=O)CO [VBP15]
[4]
  Muscular dystrophy: improves muscular dystrophy without side effects

## Cc1cc(OCC(=O)O)cc(C)c1Cc1ccc(O)c(C(C)C)c1 [sobetirome]
[5]
  Plasma LDL cholesterol and triglycerides in humans: lowers plasma LDL cholesterol and reduces plasma triglycerides
[6]
  Serum lipids and cholesterol in animal models: reduced serum lipids, decreased cholesterol levels
